The values that follow come from patent US11401250B2, “Photochromic compounds for use in the treatment of eye disorders” (FONDAZIONE ISTITUTO ITALIANO DI TECNOLOGIA, priority 2018, dated 2022).

One data set has as its system HEK293 cells. Nature of the data set: Time-dependent fluorescence photo-switching dynamics in living HEK293 cells. The format is cell-based. As to the method:
FIG. 1: (a) scheme of the isomerization process of a compound according to the present invention. Absorption (b) and emission (c) spectra of the compound Ziapin 2 25 μM in DMSO. (d) photoswitching dynamics of Ziapin 2 in water, DMSO and in HEK293 cells. (e, f) absorption and photoluminescence of Ziapin 1 25 μM in DMSO (e) and evolution of the absorption peak at 470 nm by illuminating with a diode at 450 nm (f).
(§1) The Ziapin 2 molecule (FIG. 1a) in DMSO has a strong absorption peak centered at 470 nm (FIG. 1b) and a peak at 330nm, attributed respectively to the transitions n→Π* and Π→Π* of the E isomer. […] Azobenzene fluorescence is also an ideal tool for monitoring the switch behavior of photoreponsive materials, as well as the localization and photodynamics in living cells. The decrease of Ziapin 2 time-dependent fluorescence following exposure to blue light in DMSO solution (FIG. 1c) is related to the weakening of the photoluminescence of the E conformer due to the photoisomerization reaction. Time-dependent fluorescence measurements (FIG. 1d) indicate a clear “photo-switching” dynamics of azobenzene in living HEK293 cells, with estimated isomerization/relaxation degrees of 0.01 cm^2J^−1 and 0.0085s^−1. […] An analogous characterization was performed with the Ziapin 1 molecule (FIG. 1e,f).

Data set [1] concerns primary neurons. The data set is described as follows: Compound localization testing by confocal microscopy (Cell Mask, Vybrant markers). Type of data set: cell-based. The conditions noted are these: for coverage of the cell surface / fraction of compound located in plasma membranes and in lipid rafts: primary neurons, confocal microscopy. The source says: FIG. 4: confocal microscopy images showing the localization of the Ziapin 2 molecule in the vicinity of the plasma membranes (a) and in the lipid rafts (b) of primary neurons.
FIG. 5: confocal microscopy images showing the localization of the Ziapin 1 molecule in the vicinity of the plasma membranes (a) and in the lipid rafts (b) of primary neurons.
Molecules tend to localize in cell membranes and change their conformation. […] The targeting of both molecules at the plasma membrane level was analyzed in cultures of primary neurons using specific markers for the cell membrane (Cell Mask, FIG. 4a, FIG. 5a, respectively) or for lipid rafts, membrane areas rich in cholesterol and ion channels (Vybrant, FIG. 4b, FIG. 5b, respectively).

Data set [2] is described as follows: Photophysical characterization (UV-Vis absorption, isomerization under blue light). The format is physicochemical.
Excerpt: as §1
The isomerization reaction for the compound NO2/1C6Py is not observed, since in this case the nitro-azobenzene having a push-pull configuration has a rapid thermal relaxation (>ns) which hinders the appearance of the absorption of the cis isomer in the investigated temporal regime (Bandara et al., Chem. Soc. Rev., 2012, 41, 1809-1825).

The subject of data set [3] is primary neurons. The data set is described as follows: Electrophysiology (current-clamp) on primary neurons under light stimulation. The format is cell-based. The procedure:
FIG. 6: electrophysiology conducted on HEK293 cells (a, b), primary neurons in the absence (c, d) or in the presence of synaptic blockers (e, f) treated with Ziapin 2 and under illumination. (a) Representative average current-clamp traces recorded from HEK293 cells incubated with DMSO 0.25% (v/v) (Ctrl; black line) or 25 μM Ziapin 2 in DMSO (gray line) and photostimulated for 20 ms (top) or 200 ms (bottom) (wavelength 470 nm, light power density of 47 mW/mm^2, shaded areas in gray). (b) Average hyperpolarization and subsequent depolarization in HEK293 cells. (c, d) Representative current-clamp traces of passive (hyperpolarization/depolarization, left) and active (action potentials, right) responses recorded from neurons incubated in DMSO 0.25% (v/v) (Ctrl; black line) or with 5 μM Ziapin 2 in DMSO (gray line) in the absence (c) or presence (e) of synaptic blockers. The duration of light stimulation (20 and 200 ms, respectively) is indicated as a shaded area (wavelength 470 nm, light power density of 20 mW/mm^2). (d, f) Quantification of the hyperpolarization (left) and depolarization (right) peak in primary neurons exposed to DMSO or Ziapin 2 in the absence (d) or presence (f) of synaptic blockers and subjected to 20 or 200 ms of light stimulation.
FIG. 7: modulation of membrane capacitance and conductance in primary neurons following light stimulation. Representative traces of capacity (a) and conductance (b) recorded in current-clamp from primary neurons incubated with 0.25% (v/v) DMSO (Ctrl; black line) or 5 μM Ziapin 2 in DMSO (gray line) in the presence of synaptic and photostimulated blockers with 20 ms (left) or 200 ms (right) (wavelength 470 nm, light power density of 20 mW/mm^2, shaded areas). (c, d) Quantification of peak capacity (c) and conductance (d) variations evoked by light stimuli of 20 and 200 ms.
FIG. 8: effect of Ziapin 1 on passive and active membrane properties in primary hippocampal neurons. […] (a) Quantification of hyperpolarization (left) and depolarization (right) in response to light stimulation for 20/200 ms. […]

In another data set the test system is somatosensory cortex. Nature of the data set: Cortical responses evoked by light in vivo (LFP recordings after stereotaxic injection). On the set-up: species or system mice. The procedure: FIG. 9: cortical responses evoked by light in vivo in the somatosensory cortex of mice exposed to Ziapin 2. (a) Schematic representation of the stereotaxic injection of Ziapin 2 (200 mM in 1 μl of 10% DMSO) in the somatosensory cortex (S1ShNc, 2 mm anterior to lambda, 2 mm lateral to the midline and −723 μm ventral to the brain surface) and of the 16-fiber optic coupled microelectrode system for photostimulation and field potential recordings (LFP). (b) Representative LFP recordings evoked in the somatosensory cortex with light stimulation of 20 and 200 ms (43 mW/mm^2) in mice injected with DMSO (black line) or Ziapin 2 (gray line). The shaded areas represent light stimulation. (c) Dose-response analysis of LFPs in mice injected with DMSO (black line) or Ziapin 2 (gray line) depending on the power and duration of photostimulation.
The objective was to investigate whether the light-dependent modulation of neuronal activity observed in vitro occurred also in vivo. The electrophysiological recordings were obtained by implanting an array of 16 microelectrodes coupled to an optical fiber for photostimulation. […] The response peaked at around 200 ms following the light stimulus (FIGS. 9c and d).

`c1cc[n+](CCCCCCN(CCCCCC[n+]2ccccc2)c2ccc(N=Nc3ccc(N4CCCCCC4)cc3)cc2)cc1` [Ziapin 2]: in the data set on HEK293 cells, the estimated isomerization degree is recorded as 0.01 cm^2J^−1 and the estimated relaxation degree was 0.0085 s⁻¹. The “localization at the lipid rafts, Ziapin 2 compared with Ziapin 1” value in the data set on primary neurons [1] (primary neuron cultures exposed to compound) is “considerably more marked”. In addition, in the data set with primary neurons [1], the “coverage of the cell surface” value is “about 20%”; the “fraction of compound located in plasma membranes and in lipid rafts” value is “about 70%”. Further, in data set [2] (in DMSO, E isomer, transition n→Π*), the strong absorption peak is reported as 470 nm. For the same compound, in data set [2] (in DMSO, E isomer, transition Π→Π*), the absorption peak turned out to be 330 nm. Besides, the “membrane potential response to the light stimulus” value in the data set with primary neurons [3] (20 or 200 ms light) is listed as “hyperpolarization is followed by a depolarization”. Moreover, in the data set with primary neurons [3] (synaptic blockers), the “capacity and conductivity of the membrane under light stimulation compared to the values in the dark” value was “significant decrease”. Also, the “diameter of the area of diffusion and absorption of the molecule by cortical cells” value with somatosensory cortex (1 μl in the somatosensory cortex, fluorescence analysis) was “about 1 mm”. For the same compound, the “time of response peak following the light stimulus” value with somatosensory cortex (LFP, somatosensory cortex) is given as “around 200 ms”. Besides, the “LFP changes with respect to DMSO alone” value in the data set with somatosensory cortex (absence of the light stimulus and highest power used (160 mW/mm^2)) is recorded as “No significant changes”. The “LFP response compared with DMSO” value in the data set on somatosensory cortex (higher power densities) is reported as “significantly higher”. Further, in the data set on somatosensory cortex (optical stimulation 20 and 200 ms, 472 nm laser, different intensities), the “cortical activity evaluated in terms of field potentials (LFP)” value is on record as “significant activation”. The “LFP response compared with animals treated with DMSO” value with somatosensory cortex (stimulations at 25 and 43 mW/mm^2, 20 ms illumination) was “significantly different”.
With `O=[N+]([O-])c1ccc(N=Nc2ccc(NCCCCCC[n+]3ccccc3)cc2)cc1` [NO2/1C6Py], the “trans-cis isomerization reaction in UV-Vis absorption spectra” value in data set [2] (470 nm, FIG. 18) is listed as “not observed”.
As to `c1cc[n+](CCCCCCNc2ccc(N=Nc3ccc(N4CCCCCC4)cc3)cc2)cc1` [Ziapin 1], in the data set on primary neurons [1], the “coverage of the cell surface” value is “about 20%”; the “fraction of compound located in plasma membranes and in lipid rafts” value is listed as “less than 50%”. For the same compound, in the data set on primary neurons [3] (compared with Ziapin 2), the “modulation of passive and active membrane properties following light stimulation” value is “lower modulation effect”.
